Results: ChEMBL document CHEMBL3352739, “Comparative in vivo evaluation of polyalkoxy substituted 4H-chromenes and oxa-podophyllotoxins as microtubule destabilizing agents in the phenotypic sea urchin embryo assay” (2014)

Key:
Paracentrotus lividus [1] = assay: Antimitotic microtubule destabilizing activity in Paracentrotus lividus L embryos assessed as induction of cleavage alteration
Paracentrotus lividus [2] = assay: Antimitotic microtubule destabilizing activity in Paracentrotus lividus L embryos assessed as induction of cleavage arrest
Paracentrotus lividus [3] = assay: Antimitotic microtubule destabilizing activity in Paracentrotus lividus L embryos assessed as induction of embryo spinning
HOP-62 = assay: Growth inhibition of human HOP62 cells after 48 hrs by sulforhodamine B assay; format: functional; details: HOP-62, 48 h
NCI-H226 = assay: Growth inhibition of human NCI-H226 cells after 48 hrs by sulforhodamine B assay; format: functional; details: NCI-H226, 48 h
NCI-H23 = assay: Growth inhibition of human NCI-H23 cells after 48 hrs by sulforhodamine B assay; format: functional; details: NCI-H23, 48 h
NCI-H322M = assay: Growth inhibition of human NCI-H322M cells after 48 hrs by sulforhodamine B assay; format: functional
NCI-H460 = assay: Growth inhibition of human NCI-H460 cells after 48 hrs by sulforhodamine B assay; format: functional; details: NCI-H460, 48 h
NCI-H522 = assay: Growth inhibition of human NCI-H522 cells after 48 hrs by sulforhodamine B assay; format: functional; details: NCI-H522, 48 h
[4] = Growth inhibition of human COLO205 cells after 48 hrs by sulforhodamine B assay; format: functional; details: COLO 205, 48 h
[5] = Growth inhibition of human HCC2998 cells after 48 hrs by sulforhodamine B assay; format: functional; details: HCC 2998, 48 h
[6] = Growth inhibition of human HCT116 cells after 48 hrs by sulforhodamine B assay; format: functional; details: HCT-116, 48 h
[7] = Growth inhibition of human HCT15 cells after 48 hrs by sulforhodamine B assay; format: functional; details: HCT-15, 48 h
HT-29 = assay: Growth inhibition of human HT-29 cells after 48 hrs by sulforhodamine B assay; format: functional; details: HT-29, 48 h
KM12 = assay: Growth inhibition of human KM12 cells after 48 hrs by sulforhodamine B assay; format: functional; details: KM12, 48 h
SW-620 = assay: Growth inhibition of human SW620 cells after 48 hrs by sulforhodamine B assay; format: functional; details: SW-620, 48 h
SF-268 = assay: Growth inhibition of human SF268 cells after 48 hrs by sulforhodamine B assay; format: functional; details: SF-268, 48 h
[8] = Growth inhibition of human SF295 cells after 48 hrs by sulforhodamine B assay; format: functional; details: SF-295, 48 h
[9] = Growth inhibition of human SF539 cells after 48 hrs by sulforhodamine B assay; format: functional; details: SF-539, 48 h
SNB-19 = assay: Growth inhibition of human SNB19 cells after 48 hrs by sulforhodamine B assay; format: functional; details: SNB-19, 48 h
SNB-75 = assay: Growth inhibition of human SNB75 cells after 48 hrs by sulforhodamine B assay; format: functional; details: SNB-75, 48 h
M14 = assay: Growth inhibition of human M14 cells after 48 hrs by sulforhodamine B assay; format: functional; details: M14, 48 h
MDA-MB-435 = assay: Growth inhibition of human MDA-MB-435 cells after 48 hrs by sulforhodamine B assay; format: functional; details: MDA-MB-435, 48 h
SK-MEL-5 = assay: Growth inhibition of human SK-MEL-5 cells after 48 hrs by sulforhodamine B assay; format: functional; details: SK-MEL-5, 48 h
[10] = Growth inhibition of human UACC257 cells after 48 hrs by sulforhodamine B assay; format: functional; details: UACC-257, 48 h
[11] = Growth inhibition of human UACC62 cells after 48 hrs by sulforhodamine B assay; format: functional; details: UACC-62, 48 h
IGROV-1 = assay: Growth inhibition of human IGROV1 cells after 48 hrs by sulforhodamine B assay; format: functional; details: IGROV-1, 48 h
[12] = Growth inhibition of human OVCAR3 cells after 48 hrs by sulforhodamine B assay; format: functional; details: OVCAR-3, 48 h
[13] = Growth inhibition of human OVCAR4 cells after 48 hrs by sulforhodamine B assay; format: functional; details: OVCAR-4, 48 h
[14] = Growth inhibition of human OVCAR5 cells after 48 hrs by sulforhodamine B assay; format: functional; details: OVCAR-5, 48 h
[15] = Growth inhibition of human OVCAR8 cells after 48 hrs by sulforhodamine B assay; format: functional; details: OVCAR-8, 48 h
[16] = Growth inhibition of human NCI-ADR-RES cells after 48 hrs by sulforhodamine B assay; format: functional
SK-OV-3 = assay: Growth inhibition of human SKOV3 cells after 48 hrs by sulforhodamine B assay; format: functional; details: SK-OV-3, 48 h
786-0 = assay: Growth inhibition of human 786-0 cells after 48 hrs by sulforhodamine B assay; format: functional; details: 786-0, 48 h
A498 = assay: Growth inhibition of human A498 cells after 48 hrs by sulforhodamine B assay; format: functional; details: A498, 48 h
ACHN = assay: Growth inhibition of human ACHN cells after 48 hrs by sulforhodamine B assay; format: functional
CAKI-1 = assay: Growth inhibition of human CAKI-1 cells after 48 hrs by sulforhodamine B assay; format: functional; details: CAKI-1, 48 h
[17] = Growth inhibition of human RXF393 cells after 48 hrs by sulforhodamine B assay; format: functional; details: RXF 393, 48 h
SN12C = assay: Growth inhibition of human SN12C cells after 48 hrs by sulforhodamine B assay; format: functional
TK-10 = assay: Growth inhibition of human TK10 cells after 48 hrs by sulforhodamine B assay; format: functional; details: TK-10, 48 h
[18] = Growth inhibition of human UO31 cells after 48 hrs by sulforhodamine B assay; format: functional; details: UO-31, 48 h
[19] = Growth inhibition of human PC3 cells after 48 hrs by sulforhodamine B assay; format: functional; details: PC-3, 48 h
DU-145 = assay: Growth inhibition of human DU145 cells after 48 hrs by sulforhodamine B assay; format: functional; details: DU-145, 48 h
MCF7 = assay: Growth inhibition of human MCF7 cells after 48 hrs by sulforhodamine B assay; format: functional; details: MCF7, 48 h
MDA-MB-231 = assay: Growth inhibition of human MDA-MB-231 cells after 48 hrs by sulforhodamine B assay; format: functional; details: MDA-MB-231, 48 h
[20] = Growth inhibition of human Hs 578T cells after 48 hrs by sulforhodamine B assay; format: functional
[21] = Growth inhibition of human BT549 cells after 48 hrs by sulforhodamine B assay; format: functional; details: BT-549, 48 h
T47D = assay: Growth inhibition of human T47D cells after 48 hrs by sulforhodamine B assay; format: functional
MDA-MB-468 = assay: Growth inhibition of human MDA-MB-468 cells after 48 hrs by sulforhodamine B assay; format: functional; details: MDA-MB-468, 48 h
[22] = Growth inhibition of human H1299 cells after 48 hrs by sulforhodamine B assay; format: functional; details: NCI-H1299, 48 h
[23] = Cytotoxicity against human NCI60 cells; format: functional
CCRF-CEM = assay: Growth inhibition of human CCRF-CEM cells after 48 hrs by sulforhodamine B assay; format: functional
HL-60(TB) = assay: Growth inhibition of human HL-60(TB) cells after 48 hrs by sulforhodamine B assay; format: functional; details: HL-60, 48 h
K562 = assay: Growth inhibition of human K562 cells after 48 hrs by sulforhodamine B assay; format: functional; details: K562, 48 h
[24] = Growth inhibition of human MOLT4 cells after 48 hrs by sulforhodamine B assay; format: functional; details: MOLT-4, 48 h
[25] = Growth inhibition of human RPMI8226 cells after 48 hrs by sulforhodamine B assay; format: functional; details: RPMI-8226, 48 h
SR = assay: Growth inhibition of human SR cells after 48 hrs by sulforhodamine B assay; format: functional
A549 = assay: Growth inhibition of human A549/ATCC cells after 48 hrs by sulforhodamine B assay; format: functional; details: A549, 48 h
[26] = Cytotoxicity against human NCI60 cells assessed as mean cell growth at 10 uM; format: functional

For `COc1ccc(C2C(C#N)=C(N)Oc3cc(OC)ccc32)cc1` (stereo not drawn), the EC (Paracentrotus lividus [1]) was 0.1 µM, the EC (Paracentrotus lividus [2]) was 1 µM and the EC (Paracentrotus lividus [3]) was > 5 µM.

`COc1cccc(C2C(C#N)=C(N)Oc3cc(OC)ccc32)c1` (stereo not drawn) showed a GI50 (HOP-62) of 41.6 nM, a GI50 (NCI-H226) of 835 nM and a GI50 (NCI-H23) of 40 nM. For the same compound, the GI50 (NCI-H322M) was 63.1 nM, the GI50 (NCI-H460) was 36.4 nM and the GI50 (NCI-H522) was < 10 nM. For the same compound, the GI50 [4] was 45.2 nM, the GI50 [5] was 51.5 nM and the GI50 [6] was 47.9 nM. For the same compound, the GI50 [7] was 36.6 nM, the GI50 (HT-29) was 37 nM and the GI50 (KM12) was 30.3 nM. For the same compound, the GI50 (SW-620) was 38.1 nM, the GI50 (SF-268) was 73.5 nM and the GI50 [8] was 25.4 nM. For the same compound, the GI50 [9] was 25 nM, the GI50 (SNB-19) was 3.77 µM and the GI50 (SNB-75) was 27 nM. The GI50 (M14) was 26.8 nM, the GI50 (MDA-MB-435) was < 10 nM and the GI50 (SK-MEL-5) was 50.3 nM. It also gave a GI50 [10] of 12.4 µM, a GI50 [11] of 70.5 nM and a GI50 (IGROV-1) of 48.2 nM. The GI50 [12] was 27.8 nM, the GI50 [13] was 535 nM and the GI50 [14] was 66.2 nM. It also gave a GI50 [15] of 51.4 nM, a GI50 [16] of 14.9 nM and a GI50 (SK-OV-3) of 34 nM. It also gave a GI50 (786-0) of 50.7 nM, a GI50 (A498) of 18.6 nM and a GI50 (ACHN) of 120 nM. The GI50 (CAKI-1) was 42.6 nM, the GI50 [17] was 26 nM and the GI50 (SN12C) was 69.3 nM. It also gave a GI50 (TK-10) of 11.8 µM, a GI50 [18] of 57.2 nM and a GI50 [19] of 35.7 nM. It also gave a GI50 (DU-145) of 35.1 nM, a GI50 (MCF7) of 17.1 nM and a GI50 (MDA-MB-231) of 54.6 nM. For the same compound, the GI50 [20] was 28.3 nM, the GI50 [21] was 87.2 nM and the GI50 (T47D) was 43.7 nM. It also gave a GI50 (MDA-MB-468) of 35 nM, a GI50 [22] of 55 nM and an EC (Paracentrotus lividus [1]) of 0.002 µM. It also gave an EC (Paracentrotus lividus [2]) of 0.01 µM, an EC (Paracentrotus lividus [3]) of 0.05 µM and a GI50 [23] of 55 nM. It also gave a GI50 (CCRF-CEM) of 31.2 nM, a GI50 (HL-60(TB)) of 25 nM and a GI50 (K562) of 19.7 nM. For the same compound, the GI50 [24] was 55.7 nM, the GI50 [25] was 37.4 nM and the GI50 (SR) was 20.2 nM. The GI50 (A549) was 45.2 nM.

With `COc1ccc(C2C(C#N)=C(N)Oc3cc(O)ccc32)c(OC)c1` (stereo not drawn) the EC (Paracentrotus lividus [1]) was > 4 µM, the EC (Paracentrotus lividus [2]) was > 4 µM and the EC (Paracentrotus lividus [3]) was > 4 µM.

For `COc1ccc(C2C(C#N)=C(N)Oc3cc(O)ccc32)cc1OC` (stereo not drawn), the EC (Paracentrotus lividus [1]) was > 4 µM, the EC (Paracentrotus lividus [2]) was > 4 µM and the EC (Paracentrotus lividus [3]) was > 4 µM. For the same compound, the Activity [26] was 99.4%.

With `COc1cc(C2C(C#N)=C(N)Oc3cc(O)ccc32)cc2c1OCO2` (stereo not drawn) the EC (Paracentrotus lividus [1]) was 0.5 µM, the EC (Paracentrotus lividus [2]) was 4 µM and the EC (Paracentrotus lividus [3]) was 10 µM.

For `COc1ccc2c(c1)OC(N)=C(C#N)[C@H]2c1cc(OC)c(OC)c(OC)c1`, the EC (Paracentrotus lividus [1]) was 2 µM, the EC (Paracentrotus lividus [2]) was > 4 µM and the EC (Paracentrotus lividus [3]) was > 5 µM.

`COc1ccc2c(c1)OC(N)=C(C#N)[C@@H]2c1cc(OC)c(OC)c(OC)c1` showed an EC (Paracentrotus lividus [1]) of 0.005 µM, an EC (Paracentrotus lividus [2]) of 0.04 µM and an EC (Paracentrotus lividus [3]) of 0.2 µM.

With `N#CC1=C(N)Oc2cc(O)ccc2C1c1ccccc1F` (stereo not drawn) the EC (Paracentrotus lividus [1]) was 1 µM, the EC (Paracentrotus lividus [2]) was 4 µM and the EC (Paracentrotus lividus [3]) was > 5 µM.

In the case of `COc1ccc2c(c1)OC(N)=C(C#N)C2c1cc(OC)c2c(c1OC)OCO2` (stereo not drawn), the EC (Paracentrotus lividus [1]) was 0.1 µM, the EC (Paracentrotus lividus [2]) was 1 µM and the EC (Paracentrotus lividus [3]) was 4 µM.
